Test results taken from US10206937B2, “Boronic acid derivatives and therapeutic uses thereof” (Qpex Biopharma, Inc., priority 2014, dated 2019).

Test system: strains of Enterobacteriaceae producing various carbapenemases (class A, D and B; 104 strains)
Assay: Antibiotics potentiation by Compound 27 (MIC; meropenem, doripenem, ertapenem, cefepime)
Type: cell-based
Settings: + 27 = with Compound 27 at fixed 4 μg/ml

SMILES: COc1ccc2c(c1C(=O)O)OB(O)C(Sc1nnc(N)s1)C2 (centres unmarked) [D + 27]
- MIC (strain CF1012 Citrobacter freundii (KPC-2)): X (MIC of less than 1 μg/mL)
- MIC (strain CF1021 Citrobacter freundii (CMY-type; VIM-1)): X (MIC of less than 1 μg/mL)
- MIC (strain CF1022 Citrobacter freundii (SHV-12(2be), TEM-OSBL(2b); IMP-8)): X (MIC of less than 1 μg/mL)
- MIC (strain CF1023 Citrobacter freundii (SHV-12(2be), TEM-OSBL(2b); CTX-M-3; CMY-34; NDM-1)): X (MIC of less than 1 μg/mL)
- MIC (strain CL1080 Enterobacter cloacae (IMP-1)): X (MIC of less than 1 μg/mL)
- MIC (strain EA1019 Enterobacter aerogenes (SHV-5, VIM-1)): X (MIC of less than 1 μg/mL)
- MIC (strain EC1007 Escherichia coli (KPC-3)): X (MIC of less than 1 μg/mL)
- MIC (strain EC1061 Escherichia coli (NDM-1, CMY-6)): X (MIC of less than 1 μg/mL)
- MIC (strain EC1062 Escherichia coli (OXA-48, CTX-M-15)): X (MIC of less than 1 μg/mL)
- MIC (strain EC1064 Escherichia coli (NDM-1, CMY-6, CTX-M-15)): Y (MIC of 1 μg/mL to 10 μg/mL)
- MIC (strain EC1065 Escherichia coli (IMP-1)): X (MIC of less than 1 μg/mL)
- MIC (strain EC1068 Escherichia coli (VIM-1)): X (MIC of less than 1 μg/mL)
- MIC (strain EC1069 Escherichia coli (CTX-M-27; NDM-1)): X (MIC of less than 1 μg/mL)
- MIC (strain EC1070 Escherichia coli (TEM-OSBL(2b); CMY-42; NDM-5)): X (MIC of less than 1 μg/mL)
- MIC (strain EC1072 Escherichia coli (CTX-M-3; NDM-1)): X (MIC of less than 1 μg/mL)
- MIC (strain ECL1004 Enterobacter cloacae (NMC-A)): X (MIC of less than 1 μg/mL)
- MIC (strain ECL1026 Enterobacter cloacae (KPC-2, TEM-1)): X (MIC of less than 1 μg/mL)
- MIC (strain ECL1036 Enterobacter cloacae (KPC-3, TEM-1)): X (MIC of less than 1 μg/mL)
- MIC (strain ECL1045 Enterobacter cloacae (VIM-1)): Y (MIC of 1 μg/mL to 10 μg/mL)
- MIC (strain ECL1055 Enterobacter cloacae (KPC-3, TEM)): X (MIC of less than 1 μg/mL)
- MIC (strain ECL1057 Enterobacter cloacae (NDM-1, TEM-1, CTX-M-15)): Z (MIC of greater than 10 μg/mL)
- MIC (strain ECL1058 Enterobacter cloacae (KPC-3, SHV-11, TEM-1)): X (MIC of less than 1 μg/mL)
- MIC (strain ECL1059 Enterobacter cloacae (KPC-3, SHV-12, TEM-1)): X (MIC of less than 1 μg/mL)
- MIC (strain ECL1061 Enterobacter cloacae (KPC-3, Hyper AmpC expression)): X (MIC of less than 1 μg/mL)
- MIC (strain ECL1082 Enterobacter cloacae (VIM-1)): X (MIC of less than 1 μg/mL)
- MIC (strain ECL1084 Enterobacter cloacae (CTX-M-15; ACT-16; NDM-1)): X (MIC of less than 1 μg/mL)
- MIC (strain ECL1085 Enterobacter cloacae (SHV-31(2be), TEM-1(2b); CTX-M-15; NDM-1)): X (MIC of less than 1 μg/mL)
- MIC (strain ECL1086 Enterobacter cloacae (VIM-31, OXA-48(c))): X (MIC of less than 1 μg/mL)
- MIC (strain ECL1087 Enterobacter cloacae (VIM-1)): X (MIC of less than 1 μg/mL)
- MIC (strain ECL1088 Enterobacter cloacae (TEM-1(2b); CTX-M-14; ACT-type; VIM-1)): X (MIC of less than 1 μg/mL)
- MIC (strain ECL1089 Enterobacter cloacae (ACT-type; IMP-1)): Y (MIC of 1 μg/mL to 10 μg/mL)
- MIC (strain ECL1090 Enterobacter cloacae (TEM-1(2b); CTX-M-22; ACT-type; IMP-8)): X (MIC of less than 1 μg/mL)
- MIC (strain ECL1091 Enterobacter cloacae (VIM-1)): Y (MIC of 1 μg/mL to 10 μg/mL)
- MIC (strain ECL1092 Enterobacter cloacae (TEM-OSBL(2b); ACT-32; VIM-1)): X (MIC of less than 1 μg/mL)
- MIC (strain ECL1093 Enterobacter cloacae (TEM-OSBL(2b); ACT-32; VIM-1)): X (MIC of less than 1 μg/mL)
- MIC (strain ECL1094 Enterobacter cloacae (VIM-1)): X (MIC of less than 1 μg/mL)
- MIC (strain ECL1096 Enterobacter cloacae (CMY-4, VIM-4, OXA-48(c))): X (MIC of less than 1 μg/mL)
- MIC (strain ECL1097 Enterobacter cloacae (SHV-31(2be), TEM-OSBL(2b); CTX-M-15; ACT-31; NDM-1)): X (MIC of less than 1 μg/mL)
- MIC (strain ECL1098 Enterobacter cloacae (TEM-OSBL(2b); DHA-1; ACT-16; NDM-1)): X (MIC of less than 1 μg/mL)
- MIC (strain KP1001 Klebsiella pneumoniae (KPC TEM SHV)): Y (MIC of 1 μg/mL to 10 μg/mL)
- MIC (strain KP1002 Klebsiella pneumoniae (KPC TEM SHV)): X (MIC of less than 1 μg/mL)
- MIC (strain KP1003 Klebsiella pneumoniae (KPC TEM SHV)): X (MIC of less than 1 μg/mL)
- MIC (strain KP1004 Klebsiella pneumoniae (KPC-2, TEM-1, SHV-11)): X (MIC of less than 1 μg/mL)
- MIC (strain KP1008 Klebsiella pneumoniae (KPC-2)): X (MIC of less than 1 μg/mL)
- MIC (strain KP1014 Klebsiella pneumoniae (VIM-1, TEM, SHV)): Y (MIC of 1 μg/mL to 10 μg/mL)
- MIC (strain KP1054 Klebsiella pneumoniae (VIM-1, SHV-11)): X (MIC of less than 1 μg/mL)
- MIC (strain KP1059 Klebsiella pneumoniae (VIM-1, SHV-11)): Y (MIC of 1 μg/mL to 10 μg/mL)
- MIC (strain KP1061 Klebsiella pneumoniae (KPC-3, SHV-11, TEM-1)): X (MIC of less than 1 μg/mL)
- MIC (strain KP1064 Klebsiella pneumoniae (KPC-2, SHV-11, TEM-1)): Y (MIC of 1 μg/mL to 10 μg/mL)
- MIC (strain KP1065 Klebsiella pneumoniae (VIM-1, SHV-11)): X (MIC of less than 1 μg/mL)
- MIC (strain KP1070 Klebsiella pneumoniae (KPC-2, SHV-11, TEM-1)): X (MIC of less than 1 μg/mL)
- MIC (strain KP1074 Klebsiella pneumoniae (KPC-3, SHV-11, TEM)): Y (MIC of 1 μg/mL to 10 μg/mL)
- MIC (strain KP1081 Klebsiella pneumoniae (NDM-1, TEM-1, SHV-11, CMY-6, CTX-M-15)): X (MIC of less than 1 μg/mL)
- MIC (strain KP1082 Klebsiella pneumoniae (KPC-2, SHV-1)): X (MIC of less than 1 μg/mL)
- MIC (strain KP1083 Klebsiella pneumoniae (KPC-3, SHV-1, TEM-1)): X (MIC of less than 1 μg/mL)
- MIC (strain KP1084 Klebsiella pneumoniae (KPC-3, SHV-11, TEM-1)): Y (MIC of 1 μg/mL to 10 μg/mL)
- MIC (strain KP1086 Klebsiella pneumoniae (OXA-48, CTX-M-15, TEM, SHV)): Y (MIC of 1 μg/mL to 10 μg/mL)
- MIC (strain KP1087 Klebsiella pneumoniae (KPC-2, CTX-M-15, SHV-11, TEM-1)): Y (MIC of 1 μg/mL to 10 μg/mL)
- MIC (strain KP1088 Klebsiella pneumoniae (KPC-3, SHV-11, TEM-1)): X (MIC of less than 1 μg/mL)
- MIC (strain KP1089 Klebsiella pneumonias (OXA-181, CTX-M-15, TEM, SHV)): X (MIC of less than 1 μg/mL)
- MIC (strain KP1095 Klebsiella pneumoniae (KPC-2 TEM-1 SHV-1)): X (MIC of less than 1 μg/mL)
- MIC (strain KP1096 Klebsiella pneumoniae (KPC-2 TEM-181 SHV-11)): X (MIC of less than 1 μg/mL)
- MIC (strain KP1097 Klebsiella pneumonias (IMP-1)): X (MIC of less than 1 μg/mL)
- MIC (strain KP1098 Klebsiella pneumoniae (IMP-26)): Y (MIC of 1 μg/mL to 10 μg/mL)
- MIC (strain KP1104 Klebsiella pneumoniae (KPC TEM)): X (MIC of less than 1 μg/mL)
- MIC (strain KP1105 Klebsiella pneumoniae (KPC TEM SHV)): X (MIC of less than 1 μg/mL)
- MIC (strain KP1159 Klebsiella pneumoniae (SHV-1(2b); CTX-M-15; IMP-4)): X (MIC of less than 1 μg/mL)
- MIC (strain KP1160 Klebsiella pneumoniae (SHV-28(2be); CTX-M-15; IMP-26)): X (MIC of less than 1 μg/mL)
- MIC (strain KP1161 Klebsiella pneumoniae (NDM-1)): X (MIC of less than 1 μg/mL)
- MIC (strain KP1164 Klebsiella pneumoniae (SHV-12(2be); VIM-1)): X (MIC of less than 1 μg/mL)
- MIC (strain KP1165 Klebsiella pneumoniae (SHV-11(2b); CTX-M-15; VIM-27)): Z (MIC of greater than 10 μg/mL)
- MIC (strain KP1166 Klebsiella pneumoniae (SHV-5(2be); VIM-26)): Y (MIC of 1 μg/mL to 10 μg/mL)
- MIC (strain KP1167 Klebsiella pneumoniae (SHV-12(2be); VIM-1)): X (MIC of less than 1 μg/mL)
- MIC (strain KP1169 Klebsiella pneumoniae (SHV-11(2b); VIM-1)): X (MIC of less than 1 μg/mL)
- MIC (strain KP1170 Klebsiella pneumoniae (SHV-11(2b); CTX-M-15; NDM-1)): X (MIC of less than 1 μg/mL)
- MIC (strain KP1172 Klebsiella pneumoniae (SHV-31(2be); DHA-1; VIM-1)): X (MIC of less than 1 μg/mL)
- MIC (strain KP1173 Klebsiella pneumoniae (TEM-33(2br); CTX-M-15; IMP-1)): X (MIC of less than 1 μg/mL)
- MIC (strain KP1174 Klebsiella pneumoniae (CTX-M-14; IMP-1)): X (MIC of less than 1 μg/mL)
- MIC (strain KP1175 Klebsiella pneumoniae (SHV-OSBL(2b); VIM-1)): X (MIC of less than 1 μg/mL)
- MIC (strain KP1177 Klebsiella pneumoniae (SHV-OSBL(2b), TEM-OSBL(2b); CTX-M-15; NDM-1)): X (MIC of less than 1 μg/mL)
- MIC (strain KP1178 Klebsiella pneumoniae (SHV-OSBL(2b;) TEM-OSBL(2b); CTX-M-15; NDM-1)): X (MIC of less than 1 μg/mL)
- MIC (strain KP1179 Klebsiella pneumoniae (SHV-12(2be), TEM-OSBL(2b); CTX-M-15; NDM-7)): X (MIC of less than 1 μg/mL)
- MIC (strain KP1180 Klebsiella pneumoniae (SHV-OSBL(2b), TEM-OSBL(2b); CTX-M-15; DHA-1; IMP-26)): X (MIC of less than 1 μg/mL)
- MIC (strain KP1181 Klebsiella pneumoniae (SHV-OSBL(2b); CTX-M-15; IMP-26)): X (MIC of less than 1 μg/mL)
- MIC (strain KP1183 Klebsiella pneumoniae (SHV-OSBL(2b), TEM-OSBL(2b); CTX-M-15; NDM-1)): X (MIC of less than 1 μg/mL)
- MIC (strain KP1184 Klebsiella pneumoniae (SHV-OSBL(2b); IMP-1)): X (MIC of less than 1 μg/mL)
- MIC (strain KP1185 Klebsiella pneumoniae (SHV-OSBL(2b), TEM-OSBL(2b); IMP-4)): X (MIC of less than 1 μg/mL)
- MIC (strain KP1186 Klebsiella pneumoniae (CTX-M-15; NDM-1)): X (MIC of less than 1 μg/mL)
- MIC (strain KP1187 Klebsiella pneumoniae (SHV-55(2be), TEM-OSBL(2b); CTX-M-15; NDM-1)): X (MIC of less than 1 μg/mL)
- MIC (strain KP1188 Klebsiella pneumoniae (SHV-OSBL(2b); CTX-M-15; NDM-1)): Y (MIC of 1 μg/mL to 10 μg/mL)
- MIC (strain KP1189 Klebsiella pneumoniae (TEM-OSBL(2b); CTX-M-15; CTX-M-27; NDM-1)): X (MIC of less than 1 μg/mL)
- MIC (strain KPM1123 Klebsiella pneumoniae (KPC-2 TEM SHV)): X (MIC of less than 1 μg/mL)
- MIC (strain KPM1202 Klebsiella pneumoniae (KPC SHV TEM)): X (MIC of less than 1 μg/mL)
- MIC (strain KPM1203 Klebsiella pneumoniae (KPC SHV TEM)): X (MIC of less than 1 μg/mL)
- MIC (strain KPM1344 Klebsiella pneumoniae (VIM-1)): X (MIC of less than 1 μg/mL)
- MIC (strain KPM1345 Klebsiella pneumoniae (VIM-1 SHV)): X (MIC of less than 1 μg/mL)
- MIC (strain KPM1347 Klebsiella pneumoniae (NDM-1 SHV CTX-M-15)): X (MIC of less than 1 μg/mL)
- MIC (strain KX1017 Klebsiella oxytoca (KPC-2, OXA-2, SHV-30)): X (MIC of less than 1 μg/mL)
- MIC (strain KX1018 Klebsiella oxytoca (KPC-2, SHV-40, OXY-1)): X (MIC of less than 1 μg/mL)
- MIC (strain KX1019 Klebsiella oxytoca (KPC-2, OXA-2)): X (MIC of less than 1 μg/mL)
- MIC (strain PM1024 Proteus mirabilis (TEM-1(2b); CMY-16; VIM-1)): X (MIC of less than 1 μg/mL)
- MIC (strain PM1026 Proteus mirabilis (DHA-1; IMP-26)): Y (MIC of 1 μg/mL to 10 μg/mL)
- MIC (strain PM1027 Proteus mirabilis (VIM-5)): X (MIC of less than 1 μg/mL)
- MIC (strain SM1023 Serratia marcescens (VIM-4)): Y (MIC of 1 μg/mL to 10 μg/mL)
